Data set [1] is described as follows: Rotarod test (motor impairment, acute toxicity). Conditions: CF-1, in vivo, oral; behavioral rotarod model, mouse. As to the method:
Prior to MES testing, compound dosed mice are scrutinized for abnormal neurologic status as defined by motor impairment on a slowly turning (6 rpm) rotarod apparatus (Model 755, Series 8, IITC Life Sciences, Woodland Hills, Calif.). […] These measurements are done at the same time points as the MES assay. Untreated normal mice are able to maintain balance on the rotarod for at least one minute without falling. Median toxicity of a compound (TD50, the dose of a drug that results in motor impairment in 50% of animals) is determined.
On the technique in general: In the rotarod test animals must keep their balance on a rotating rod.

For a further data set, the target named is KCNQ1/NE1 (Homo sapiens, UniProt P51787). Nature of the data set: Two-electrode voltage-clamp in Xenopus laevis oocytes, KCNQ1/KCNE1. The format is cell-based. On the set-up: dose or concentration left out as unconfirmed. Conditions: oocyte expression. As to the method: (§1) Female Xenopus laevis extracted ovaries were purchased from eNASCO (LM00935MX, eNASCO Fort Atkinson, Wis.). […] Approximately 50 nl cRNA (about 50 ng) was injected for KCNQ1, KCNQ4, and KCNQ5 using a Nanoject microinjector (Drummond, Broomall, Pa., USA). For co-expression of KCNQ2 and KCNQ3 and of KCNQ1 and KCNE1, cRNA's were mixed in equal molar ratios before injection of approximately 50 nl. […] Oocytes were kept in Culture Barth solution at 19° C. which was changed daily and currents were recorded after 3 to 5 days.
KCNQ1/NE1, sequence (P51787 whole entry): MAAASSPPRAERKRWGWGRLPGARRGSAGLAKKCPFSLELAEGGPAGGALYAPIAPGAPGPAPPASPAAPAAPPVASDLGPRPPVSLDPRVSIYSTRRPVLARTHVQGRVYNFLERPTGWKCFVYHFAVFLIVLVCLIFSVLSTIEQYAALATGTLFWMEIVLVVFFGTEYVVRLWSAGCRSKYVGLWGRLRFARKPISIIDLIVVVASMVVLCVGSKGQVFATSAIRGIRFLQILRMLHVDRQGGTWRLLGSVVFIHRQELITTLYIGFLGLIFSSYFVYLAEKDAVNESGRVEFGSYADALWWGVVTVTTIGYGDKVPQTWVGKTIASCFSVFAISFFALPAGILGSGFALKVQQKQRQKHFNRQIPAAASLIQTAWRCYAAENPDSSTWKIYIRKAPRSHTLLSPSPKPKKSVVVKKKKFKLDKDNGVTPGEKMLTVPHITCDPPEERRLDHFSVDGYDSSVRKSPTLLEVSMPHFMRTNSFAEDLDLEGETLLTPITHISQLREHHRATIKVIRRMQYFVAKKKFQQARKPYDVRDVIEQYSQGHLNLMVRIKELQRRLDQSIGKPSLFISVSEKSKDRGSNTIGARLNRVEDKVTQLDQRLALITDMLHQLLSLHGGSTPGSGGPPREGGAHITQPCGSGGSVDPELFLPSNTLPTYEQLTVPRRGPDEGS
KCNQ channel currents expressed in Xenopus laevis oocytes were recorded using a two-electrode voltage-clamp. […]
(§2) Data were acquired by means of an Axograph X software (Axograph Scientific, Sydney, AU) and analyzed using Graph Pad Prism (GraphPad Software Inc., CA, USA). […]
(§3) After steady channel current was recorded in the presence of Retigabine at its EC75, recorded oocyte was washed with the recording solution until its steady current returned to its normal level without the presence of any drugs. Then the channel steady current was recorded in the presence of the test compound at its EC75. The percent efficacy was then expressed as: % efficacy=(C2/C 1)×100 where C2 is the recorded steady current in the presence of follow-on compound at its EC75 and C1 is the recorded steady current in the presence of Retigabine at its EC75.
For orientation: Two-electrode voltage clamp holds a large cell at a set potential and records current.

A short description of data set [2]: Open field test (acute toxicity). The settings on record: Sprague-Dawley, in vivo, oral, rat, read-out: TD50, motor impairment. The source says:
Before MES test, compound treated rats are visually observed for acute toxicity signs for approximately one minute in the open field test. Here, rats are gently placed into a plexiglass enclosure and are monitored for behavior consistent with toxicity including ataxia, trembling, hypoactivity (including failure to seek the walls), hypersensitivity, lack of exploratory behavior and lack of avoidance of the open area. […] Motor impairment, as judged by this test was not observed in the rat model and generated a TD50 value of greater than 5 mg/kg.

In the next data set the target is KCNQ2/3 (Homo sapiens, UniProt O43525+O43526). Nature of the data set: Two-electrode voltage-clamp in Xenopus laevis oocytes, KCNQ2/3. The format is cell-based. As to the method: as §1
KCNQ channel currents expressed in Xenopus laevis oocytes were recorded using a two-electrode voltage-clamp. […] The oocytes were placed in custom built perfusion chambers connected to a continuous flow system and impaled with a current electrode and a voltage-clamp electrode pulled from borosilicate glass on a Flaming/Brown Micropipette Puller (Sutter Instruments Co, Novato, Calif., USA).
All compounds were dissolved in DMSO to obtain concentrated stock solutions. On the day of electrophysiological experiments the stock solutions were thawed and diluted in recording solution to their final concentrations. The final DMSO concentration never exceeded 0.1%. Compound delivery was performed using a custom built multi-barrel apparatus connected to the flow system.
as §2, §3

Each structure is given as a SMILES string.

For `Cc1cc(N2CCc3cc(F)ccc3C2)cc(C)c1NC(=O)CC(C)(C)C` [compound A, N-[4-(6-fluoro-3,4-dihydro-1H-isoquinolin-2-yl)-2,6-dimethylphenyl]-3,3-dimethyl butanamide], the TD50 – broadly, the 50% point of the dose-response relation for the toxic effect studied – at 2 h in data set [1] came to 12.6 mg/kg. Also, on KCNQ1/NE1, the “KCNQ1/NE1 Block (%)” value is listed as 3.5%. Moreover, the TD50 at 1 min in data set [2] was over 5 mg/kg. At KCNQ2/3, the EC50 (in general, the concentration giving half of the maximal effect) turned out to be 350 nM. Besides, the “KCNQ2/3 Efficacy Relative to Retigabine (%)” value on KCNQ2/3 (oocyte expression, at EC75) worked out at 143%.

(Values after US8993593B2, “N-(4-(6-fluoro-3,4-dihydroisoquinolin-2(1H)-yl)-2,6-dimethylphenyl)-3,3-dimethylbutanamide as potassium channel modulators” (Valeant Pharmaceuticals International, priority 2006, dated 2015).)
